Measurements as given in US11445724B2, “Insecticidal compounds” (SYNGENTA PARTICIPATIONS AG, priority 2013, dated 2022).

Tests used:
Format in all cases: in vivo
[1] = system: Diabrotica balteata (Corn root worm); assay: Diabrotica balteata (Corn root worm) larval mortality, artificial diet in 24-well MTP; details: 120 h, application rate 200 ppm (concentration in well 18 ppm), L2 larvae, larval mortality after 5 days
[2] = system: Myzus persicae (Green peach aphid); assay: Myzus persicae (Green peach aphid) mortality, sprayed sunflower leaf discs; details: foliar, 144 h, 200 ppm spray on sunflower leaf discs, mixed ages, mortality 6 DAT
[3] = system: Myzus persicae (Green peach aphid); assay: Myzus persicae (Green peach aphid) mortality, test compounds mixed with Sucrose solution under Parafilm; details: 120 h, 12.5 ppm in Sucrose solution, infested pea seedlings on Parafilm, mortality 5 days after infestation
[4] = system: Plutella xylostella (Diamond back moth); assay: Plutella xylostella (Diamond back moth) larval mortality, artificial diet in 24-well MTP; details: 144 h, application rate 200 ppm (concentration in well 18 ppm), L2 larvae, larval mortality after 6 days
[5] = system: Spodoptera littoralis (Egyptian cotton leafworm); assay: Spodoptera littoralis (Egyptian cotton leafworm) mortality, sprayed cotton leaf discs; details: foliar, 72 h, 200 ppm spray on cotton leaf discs, L1 larvae, mortality 3 DAT
[6] = system: Tetranychus urticae (Two-spotted spider mite); assay: Tetranychus urticae (Two-spotted spider mite) mortality, sprayed bean leaf discs; details: foliar, 192 h, 200 ppm spray on bean leaf discs, mixed ages, egg, larval and adult mortality after 8 days
[7] = system: Thrips tabaci (Onion thrips); assay: Thrips tabaci (Onion thrips) mortality, sprayed sunflower leaf discs; details: foliar, 168 h, 200 ppm spray on sunflower leaf discs, mixed ages, mortality after 7 days

CCN(C(=O)c1cc[n+]([O-])cc1)c1cccc(C(=O)Nc2c(Br)cc(C(F)(C(F)(F)F)C(F)(F)F)cc2OC(F)F)c1OC [Compound 12]
≥ 80%: pest or weed control at 200 ppm [1] | pest or weed control at 200 ppm [2] | pest or weed control at 12.5 ppm [3] | pest or weed control at 200 ppm [4] | pest or weed control at 200 ppm [5] | pest or weed control at 200 ppm [6] | pest or weed control at 200 ppm [7]

O=C(Nc1cccc(C(=O)Nc2c(Cl)cc(C(F)(C(F)(F)F)C(F)(F)F)cc2OC(F)F)c1F)c1ccncc1 [Compound 15]
≥ 80%: pest or weed control at 200 ppm [1] | pest or weed control at 200 ppm [2] | pest or weed control at 12.5 ppm [3] | pest or weed control at 200 ppm [4] | pest or weed control at 200 ppm [5] | pest or weed control at 200 ppm [6] | pest or weed control at 200 ppm [7]

O=C(Nc1cccc(C(=O)Nc2c(Cl)cc(C(F)(C(F)(F)F)C(F)(F)F)cc2OC(F)F)c1F)c1ccc(C(F)(F)F)cc1 [Compound 64]
≥ 80%: pest or weed control at 200 ppm [1] | pest or weed control at 200 ppm [2] | pest or weed control at 12.5 ppm [3] | pest or weed control at 200 ppm [4] | pest or weed control at 200 ppm [5] | pest or weed control at 200 ppm [6] | pest or weed control at 200 ppm [7]

CCN(C(=O)c1ccccc1)c1cccc(C(=O)Nc2c(Cl)cc(C(F)(C(F)(F)F)C(F)(F)F)cc2OC(F)F)c1F [Compound 119]
≥ 80%: pest or weed control at 200 ppm [1] | pest or weed control at 200 ppm [2] | pest or weed control at 12.5 ppm [3] | pest or weed control at 200 ppm [4] | pest or weed control at 200 ppm [5] | pest or weed control at 200 ppm [6] | pest or weed control at 200 ppm [7]

COc1c(NC(=O)c2ccc([N+](=O)[O-])cc2)cccc1C(=O)Nc1c(Cl)cc(C(F)(C(F)(F)F)C(F)(F)F)cc1OC(F)F [Compound 81]
≥ 80%: pest or weed control at 200 ppm [1] | pest or weed control at 200 ppm [2] | pest or weed control at 12.5 ppm [3] | pest or weed control at 200 ppm [4] | pest or weed control at 200 ppm [5] | pest or weed control at 200 ppm [6] | pest or weed control at 200 ppm [7]

CCN(C(=O)c1ccncc1)c1cccc(C(=O)Nc2c(Br)cc(C(F)(C(F)(F)F)C(F)(F)F)cc2OC(F)F)c1OC [Compound 4]
≥ 80%: pest or weed control at 200 ppm [1] | pest or weed control at 200 ppm [2] | pest or weed control at 12.5 ppm [3] | pest or weed control at 200 ppm [4] | pest or weed control at 200 ppm [5] | pest or weed control at 200 ppm [6] | pest or weed control at 200 ppm [7]

CCN(C(=O)c1ccc(C#N)cc1)c1cccc(C(=O)Nc2c(Br)cc(C(F)(C(F)(F)F)C(F)(F)F)cc2OC(F)F)c1F [Compound 10]
≥ 80%: pest or weed control at 200 ppm [1] | pest or weed control at 200 ppm [2] | pest or weed control at 12.5 ppm [3] | pest or weed control at 200 ppm [4] | pest or weed control at 200 ppm [5] | pest or weed control at 200 ppm [6] | pest or weed control at 200 ppm [7]

O=C(Nc1cccc(C(=O)Nc2c(Cl)cc(C(F)(C(F)(F)F)C(F)(F)F)cc2OC(F)F)c1F)c1ccc(OC(F)(F)F)cc1 [Compound 60]
≥ 80%: pest or weed control at 200 ppm [1] | pest or weed control at 200 ppm [2] | pest or weed control at 12.5 ppm [3] | pest or weed control at 200 ppm [4] | pest or weed control at 200 ppm [5] | pest or weed control at 200 ppm [6] | pest or weed control at 200 ppm [7]

Cc1cc(F)ccc1C(=O)Nc1cccc(C(=O)Nc2c(Cl)cc(C(F)(C(F)(F)F)C(F)(F)F)cc2OC(F)F)c1F [Compound 53]
≥ 80%: pest or weed control at 200 ppm [1] | pest or weed control at 200 ppm [2] | pest or weed control at 12.5 ppm [3] | pest or weed control at 200 ppm [4] | pest or weed control at 200 ppm [5] | pest or weed control at 200 ppm [6] | pest or weed control at 200 ppm [7]

O=C(Nc1cccc(C(=O)Nc2c(Br)cc(C(F)(C(F)(F)F)C(F)(F)F)cc2OC(F)F)c1F)c1ccc(F)cc1Cl [Compound 36]
≥ 80%: pest or weed control at 200 ppm [1] | pest or weed control at 200 ppm [2] | pest or weed control at 12.5 ppm [3] | pest or weed control at 200 ppm [4] | pest or weed control at 200 ppm [5] | pest or weed control at 200 ppm [6] | pest or weed control at 200 ppm [7]

CCN(C(=O)c1ccncc1)c1cccc(C(=O)Nc2c(C)cc(C(F)(C(F)(F)F)C(F)(F)F)cc2OC(F)F)c1F [Compound 101]
≥ 80%: pest or weed control at 200 ppm [1] | pest or weed control at 200 ppm [2] | pest or weed control at 12.5 ppm [3] | pest or weed control at 200 ppm [4] | pest or weed control at 200 ppm [5] | pest or weed control at 200 ppm [6] | pest or weed control at 200 ppm [7]

COc1c(NC(=O)c2ccc(F)cc2)cccc1C(=O)Nc1c(Br)cc(C(F)(C(F)(F)F)C(F)(F)F)cc1OC(F)F [Compound 61]
≥ 80%: pest or weed control at 200 ppm [1] | pest or weed control at 200 ppm [2] | pest or weed control at 12.5 ppm [3] | pest or weed control at 200 ppm [4] | pest or weed control at 200 ppm [5] | pest or weed control at 200 ppm [6] | pest or weed control at 200 ppm [7]

CCN(C(=O)c1cc[n+]([O-])cc1)c1cccc(C(=O)Nc2c(Br)cc(C(F)(C(F)(F)F)C(F)(F)F)cc2OC(F)F)c1F [Compound 11, N-[3-[[2-bromo-6-(difluoromethoxy)-4-[1,2,2,2-tetrafluoro-1-(trifluoromethyl)ethyl]phenyl]carbamoyl]-2-fluoro-phenyl]-N-ethyl-1-oxido-pyridin-1-ium-4-carboxamide]
≥ 80%: pest or weed control at 200 ppm [1] | pest or weed control at 200 ppm [2] | pest or weed control at 12.5 ppm [3] | pest or weed control at 200 ppm [4] | pest or weed control at 200 ppm [5] | pest or weed control at 200 ppm [6] | pest or weed control at 200 ppm [7]

COc1c(NC(=O)c2ccc(C(F)(F)F)cc2)cccc1C(=O)Nc1c(Cl)cc(C(F)(C(F)(F)F)C(F)(F)F)cc1OC(F)F [Compound 89]
≥ 80%: pest or weed control at 200 ppm [1] | pest or weed control at 200 ppm [2] | pest or weed control at 12.5 ppm [3] | pest or weed control at 200 ppm [4] | pest or weed control at 200 ppm [5] | pest or weed control at 200 ppm [6] | pest or weed control at 200 ppm [7]

COc1c(NC(=O)c2ccc(F)cc2)cccc1C(=O)Nc1c(Cl)cc(C(F)(C(F)(F)F)C(F)(F)F)cc1OC(F)F [Compound 93]
≥ 80%: pest or weed control at 200 ppm [1] | pest or weed control at 200 ppm [2] | pest or weed control at 12.5 ppm [3] | pest or weed control at 200 ppm [4] | pest or weed control at 200 ppm [5] | pest or weed control at 200 ppm [6] | pest or weed control at 200 ppm [7]

O=C(Nc1cccc(C(=O)Nc2c(Br)cc(C(F)(C(F)(F)F)C(F)(F)F)cc2OC(F)F)c1F)c1ccc(OC(F)(F)F)cc1 [Compound 26]
≥ 80%: pest or weed control at 200 ppm [1] | pest or weed control at 200 ppm [2] | pest or weed control at 12.5 ppm [3] | pest or weed control at 200 ppm [4] | pest or weed control at 200 ppm [5] | pest or weed control at 200 ppm [6] | pest or weed control at 200 ppm [7]

COc1c(NC(=O)c2ccc(F)cc2C)cccc1C(=O)Nc1c(Cl)cc(C(F)(C(F)(F)F)C(F)(F)F)cc1OC(F)F [Compound 84]
≥ 80%: pest or weed control at 200 ppm [1] | pest or weed control at 200 ppm [2] | pest or weed control at 12.5 ppm [3] | pest or weed control at 200 ppm [4] | pest or weed control at 200 ppm [5] | pest or weed control at 200 ppm [6] | pest or weed control at 200 ppm [7]

COc1c(NC(=O)c2ccc(F)cc2Cl)cccc1C(=O)Nc1c(Br)cc(C(F)(C(F)(F)F)C(F)(F)F)cc1OC(F)F [Compound 66]
≥ 80%: pest or weed control at 200 ppm [1] | pest or weed control at 200 ppm [2] | pest or weed control at 12.5 ppm [3] | pest or weed control at 200 ppm [4] | pest or weed control at 200 ppm [5] | pest or weed control at 200 ppm [6] | pest or weed control at 200 ppm [7]
